Measured values reported in paper PMC6838683, “Discovery of Human Signaling Systems: Pairing Peptides to G Protein-Coupled Receptors” (Cell, 2019).
pEC50: −log10 of the molar value.

Columns and labels:
Format in all cases: cell-based
GPR1 [1] = biological target: T1, GPR1 (Homo sapiens, UniProt P46091); assay: β-arrestin recruitment (PathHunter); details: GPR1; mean, SEM and n; read-out: pEC50, PathHunter (fold over basal) (converted)
T1 sequence (P46091 1-355): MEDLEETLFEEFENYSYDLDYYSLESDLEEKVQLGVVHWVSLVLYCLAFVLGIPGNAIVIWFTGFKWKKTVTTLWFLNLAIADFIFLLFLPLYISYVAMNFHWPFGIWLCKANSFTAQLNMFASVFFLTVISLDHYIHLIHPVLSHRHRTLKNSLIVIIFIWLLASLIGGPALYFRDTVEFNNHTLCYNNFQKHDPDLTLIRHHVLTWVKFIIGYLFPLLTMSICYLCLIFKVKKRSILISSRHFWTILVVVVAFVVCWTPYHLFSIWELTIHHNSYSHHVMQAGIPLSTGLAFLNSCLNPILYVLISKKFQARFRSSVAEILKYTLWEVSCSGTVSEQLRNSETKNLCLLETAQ
Experimental: PathHunter eXpress Assays (DiscoverX) were performed in 384-well format according to the manufacturer’s recommendations. GPR1 cells were incubated with peptides for 90 min and luminescence measured using an EnSpire 2300 Multimode plate reader (PerkinElmer).

BB3 [2] = biological target: T2, BB3 (Homo sapiens, UniProt P32247); assay: Real-time receptor internalization (TR-FRET), concentration-response; details: pEC50, Internalization (AUC)
T2 construct: hIL-2Ra signal peptide (N); expressed in transfected cells
T2 sequence (P32247 2-399 limits assumed): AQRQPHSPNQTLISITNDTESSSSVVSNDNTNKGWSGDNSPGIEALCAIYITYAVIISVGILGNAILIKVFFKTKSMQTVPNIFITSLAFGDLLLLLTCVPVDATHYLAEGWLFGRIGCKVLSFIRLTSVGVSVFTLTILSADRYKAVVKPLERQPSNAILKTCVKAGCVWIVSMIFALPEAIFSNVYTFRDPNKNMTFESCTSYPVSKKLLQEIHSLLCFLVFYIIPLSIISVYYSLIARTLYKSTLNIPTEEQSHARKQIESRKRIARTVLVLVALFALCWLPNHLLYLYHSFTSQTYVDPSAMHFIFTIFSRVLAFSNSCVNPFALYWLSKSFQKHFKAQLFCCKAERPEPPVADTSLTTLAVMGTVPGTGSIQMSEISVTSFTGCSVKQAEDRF

BB3 [3] = biological target: T2, BB3; assay: Dynamic mass redistribution (DMR), concentration-response; details: pEC50, DMR (peak), BB3; mean, SEM and n
BB3 [4] = biological target: T3, BB3 (Homo sapiens, UniProt P32247); assay: β-arrestin recruitment (Tango), validation; details: BB3; mean, SEM and n; read-out: pEC50, Tango (fold over basal) (converted)
T3 construct: host or cells: HTLA cells (HEK293-derived)
T3 sequence (P32247 1-399): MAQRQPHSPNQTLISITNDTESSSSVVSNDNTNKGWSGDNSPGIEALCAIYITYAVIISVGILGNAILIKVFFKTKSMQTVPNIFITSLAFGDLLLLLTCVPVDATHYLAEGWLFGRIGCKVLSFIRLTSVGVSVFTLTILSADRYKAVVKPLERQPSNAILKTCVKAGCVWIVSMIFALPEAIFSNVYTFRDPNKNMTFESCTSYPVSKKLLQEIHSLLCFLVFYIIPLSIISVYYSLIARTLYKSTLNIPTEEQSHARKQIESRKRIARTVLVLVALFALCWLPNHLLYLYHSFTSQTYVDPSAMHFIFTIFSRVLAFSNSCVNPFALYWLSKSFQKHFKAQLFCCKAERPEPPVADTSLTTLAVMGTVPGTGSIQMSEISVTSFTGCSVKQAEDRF
Experimental: The peptide library was additionally screened against 120 GPCR targets in parallel, including all available orphan receptors and 27 known class A peptide receptors using the Tango assay platform ([Kroeze et al., 2015]). Briefly, HTLA cells (a HEK293 cell line stably expressing a tTA-dependent luciferase reporter and a β-arrestin2-TEV fusion gene) were plated 10,000 cells/well in poly-L-lysine–coated clear-bottom white 384-well plates in DMEM supplemented with 10% FBS, 100 U/ml penicillin and 100 μg/ml streptomycin, 2 μg/ml puromycin and 100 μg/ml hygromycin B. 24 hr later, cells were transfected with Tango GPCR constructs using the calcium phosphate method ([Jordan et al., 1996]). The next day, culture medium was changed to DMEM + 1% dFBS and 10 μM peptides were added for overnight stimulation. Bright-Glo solution (Promega) was incubated for 15–20 min at room temperature, and luminescence was counted using a Trilux luminescence counter (Wallac).
For subsequent peptide validation experiments using Tango assays, HTLA cells were transiently transfected in 10 cm dishes with the receptor of interest using polyethylenimine (PEI) ([Longo et al., 2013]). After 24 hr, 25,000 cells/well were plated in clear bottom, white-walled 384-well plates. Assays were performed as described above, with luminescence measured using an EnSpire 2300 Multimode plate reader (PerkinElmer). Luminescence counts were exported into Excel and were analyzed using GraphPad Prism 7.

GPR1 [5] = biological target: T1, GPR1; assay: β-arrestin recruitment (Tango), validation; design: host or cells: HTLA cells (HEK293-derived); details: pEC50, Tango (fold over basal), GPR1; mean, SEM and n
BB3 [6] = biological target: T2, BB3; assay: IP1 accumulation (Gq/11), HTRF; details: pEC50, IP1 (nM), BB3; mean, SEM and n
GPR68 [7] = biological target: T4, GPR68 (Homo sapiens, UniProt Q15743); assay: Real-time receptor internalization (TR-FRET), concentration-response; design: hIL-2Ra signal peptide (N); expressed in transfected cells; details: receptor GPR68; mean, SEM and n (3)
Experimental: (§1) 48 hr prior to parallel assaying, SNAP-tagged oGPCR cells were plated (10,000 cells/well) in fibronectin-coated 384-well Epic biosensor microplates (Corning) and poly-D-lysine coated white 384-well plates (for internalization assays). SNAP- GLP-1 receptor was plated alongside orphan receptor cells as an internal assay control for internalization assays. Receptor-expression was induced with 0.1 μg/ml doxycycline.
A TR-FRET real-time internalization assay was used to examine peptide-dependent changes in orphan receptor localization as described previously ([Foster and Bräuner-Osborne, 2018]). Surface-expressed SNAP-tagged receptors were labeled with a cell-impermeable luminescent terbium cryptate (100 nM SNAP Lumi4-Tb; Cisbio, France) for 1 hr at 37°C. Cells were washed to remove excess terbium and incubated with fluorescein-O-acetic acid (100 μM; Sigma Aldrich) for 5 min at 37°C. Peptides were added as for DMR assays, and internalization responses were recorded for 60 min at 37°C using an EnVision 2104 Multimode plate reader (PerkinElmer). 100 nM GLP-1 was used as a positive control for SNAP-GLP1R internalization. Real-time internalization responses were calculated based on TR-FRET (excitation 340 nm; emission 520 nm and 615 nm), and were expressed as the ratio between donor (terbium) and acceptor (fluorescein) emission. For peptide screening analysis (both DMR and internalization assays), we calculated the area under the curve from the real-time traces. As the magnitude of the responses was variable between orphan receptor targets, particularly for the SNAP-tag based internalization assay where the signal is dependent on receptor surface expression, the AUC values were normalized to their respective plate averages and expressed as fold change. Validation experiments for receptor internalization were performed as above. Internalization data was processed in MS-Excel and area under the curve was used to generate concentration-response curves using GraphPad Prism 7.0. Data represent mean ± standard error of the mean (SEM) from at least 3 biologically independent experiments.

GPR68 [8] = biological target: T4, GPR68; assay: Dynamic mass redistribution (DMR), concentration-response; design: hIL-2Ra signal peptide (N); expressed in transfected cells; details: receptor GPR68; mean, SEM and n (3-4)
Experimental: as §1
DMR assays provide a single integrated readout of ligand-dependent cellular response, utilizing an optical biosensor in specialized microplates to detect wavelength shifts of reflected light as it passes through the biosensor and the lower portion of the cell (∼150-200 nm). As a signal pathway agnostic approach, DMR assays are well-suited to the study of GPCRs ([Fang et al., 2008], [Schröder et al., 2011]). The mass redistribution response (Δ picometer (pm)) likely reflects a number of intracellular events, including cytoskeletal rearrangement, protein trafficking and receptor internalization. Orphan receptor-expressing cells were gently washed twice with assay buffer (HBSS with 1 mM CaCl2, 1 mM MgCl2, 20 mM HEPES, 0.01% pluronic F-68, pH 7.4) containing 0.1% DMSO and cells were equilibrated for 90 min at 22°C in the EPIC Benchtop (BT) System (Corning) to establish a stable DMR signal. After 3-5 min baseline recordings, peptides (10 μM) were added in duplicate wells using an electronic 384-channel Viaflo pipette (Integra Biosciences, Switzerland) and DMR responses were measured for 60 min at 22°C. 100 nM norepinephrine was included as an internal assay control to assess the cellular DMR response via endogenously-expressed adrenoceptors in the TREx 293 cells. Real-time data were processed using the BT to column converter MS-Excel macro (Corning) and analyzed in GraphPad Prism 7.0. DMR recordings in peptide screening experiments were buffer and solvent corrected and the area under the curve (AUC) was quantified. For subsequent validation experiments, peptides were diluted in assay buffer containing 0.1% DMSO and DMR assays were performed as above. […] Data represent mean ± standard error of the mean (SEM) from at least 3 biologically independent experiments.

T4 sequence (Q15743 2-365 limits assumed): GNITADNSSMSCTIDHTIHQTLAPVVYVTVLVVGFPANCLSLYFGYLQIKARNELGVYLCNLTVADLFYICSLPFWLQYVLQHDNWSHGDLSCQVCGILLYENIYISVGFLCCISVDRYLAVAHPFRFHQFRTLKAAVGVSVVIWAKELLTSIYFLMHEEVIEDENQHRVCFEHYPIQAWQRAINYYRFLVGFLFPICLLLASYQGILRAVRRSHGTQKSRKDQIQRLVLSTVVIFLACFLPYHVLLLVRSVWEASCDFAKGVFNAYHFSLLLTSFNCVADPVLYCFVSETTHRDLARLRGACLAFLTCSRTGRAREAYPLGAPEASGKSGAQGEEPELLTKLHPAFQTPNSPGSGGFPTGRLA

Compound | EC50 (GPR1 [1]) [µM] | pEC50 (BB3 [2]) | pEC50 (BB3 [3]) | EC50 (BB3 [4]) [µM] | pEC50 (GPR1 [5]) | EC50 (BB3 [6]) [nM] | Internalization assays Emax (AUC) (GPR68 [7]) | DMR assays Emax (peak or AUC) (GPR68 [8])
CSCC[C@H](NC(=O)[C@H](CC(C)C)NC(=O)[C@H](Cc1c[nH]cn1)NC(=O)CNC(=O)[C@@H](NC(=O)[C@H](C)NC(=O)[C@H](Cc1c[nH]c2ccccc12)NC(=O)[C@H](Cc1c[nH]cn1)NC(=O)[C@H](CC(N)=O)NC(=O)CNC(=O)[C@H](CCCN=C(N)N)NC(=O)[C@@H]1CCCN1C(=O)[C@H](Cc1ccc(O)cc1)NC(=O)[C@H](CCSC)NC(=O)[C@H](CCCCN)NC(=O)[C@@H](NC(=O)[C@H](CC(C)C)NC(=O)[C@@H](NC(=O)[C@@H](NC(=O)CNC(=O)CNC(=O)CNC(=O)[C@H](C)NC(=O)[C@@H]1CCCN1C(=O)[C@H](CC(C)C)NC(=O)[C@@H]1CCCN1C(=O)[C@@H](N)C(C)C)[C@@H](C)O)C(C)C)[C@@H](C)O)C(C)C)C(N)=O [Gastrin-releasing peptide (GRP)] | 0.398 | 4.83 | 5.69 | 43.7 | 5.26 | 447 | – | –
RFGIPMDRIGRNRLSNSRG [128 original] | – | – | – | – | – | – | 8.3 | 893047
